According to PMC10696740 (BMC Biology, 2023):
“And” between values parts separate entries of the source, which are not always exact repeats. Equal values may be shown once. “Also recorded” adds a separate entry of the source. Read-outs that look alike come from different tables or passages of the source.

What was measured:
[1] = tested on: Lactobacillus acidophilus ATCC 4356; test: Effect of BBR on the growth of probiotics; conditions: L. acidophilus ATCC 4356
[2] = tested on: Clostridium symbiosum ATCC 14940; test: Growth inhibition of CRC pathogenic bacteria by BBR; conditions: C. symbiosum ATCC 14940; 0.3 mM and 0.6 mM BBR
[3] = biological target: FtfL from Bacteroides fragilis (Bacteroides fragilis, UniProt Q64U80); test: Inhibition of FtfL enzymatic activity; format: biochemical
Method: (§1) The activities of the FtfL enzymes were measured according to the protocol described previously.
(§2) Then, the reaction was initiated by adding substrates (0.1 mM tetrahydrofolate, 2 mM MgCl2, 0.05 mM ATP, and 8 mM sodium formate).
(§3) The product was detected with a maximum absorbance at 350 nm (ε = 24.9 mM^−1 cm^−1) using FLUOstar OPTIMA (BMG LABTECH, Offenburgh, Germany). The reaction was performed at 30 °C. The control reaction was performed by replacing BBR with DMSO. […] Data analysis was performed in GraphPad Prism 7.0.

[4] = biological target: FtfL from Parabacteroides distasonis (Parabacteroides distasonis, UniProt A6LAR6); test: Inhibition of FtfL enzymatic activity; format: biochemical
Method: as §1, §2, §3

[5] = biological target: FtfL from Clostridium symbiosum (Clostridium symbiosum, UniProt E7GR72); test: Inhibition of FtfL enzymatic activity; format: biochemical
Method: as §1, §2, §3

PaFtfL [6] = biological target: T1, PaFtfL (Peptostreptococcus anaerobius, UniProt A0A379CIH2); test: Inhibition of FtfL enzymatic activity; format: biochemical; conditions: Inhibited by BBR (IC50), FtfL from Peptostreptococcus anaerobius, 20 nM enzyme
T1 sequence (A0A379CIH2 1-558): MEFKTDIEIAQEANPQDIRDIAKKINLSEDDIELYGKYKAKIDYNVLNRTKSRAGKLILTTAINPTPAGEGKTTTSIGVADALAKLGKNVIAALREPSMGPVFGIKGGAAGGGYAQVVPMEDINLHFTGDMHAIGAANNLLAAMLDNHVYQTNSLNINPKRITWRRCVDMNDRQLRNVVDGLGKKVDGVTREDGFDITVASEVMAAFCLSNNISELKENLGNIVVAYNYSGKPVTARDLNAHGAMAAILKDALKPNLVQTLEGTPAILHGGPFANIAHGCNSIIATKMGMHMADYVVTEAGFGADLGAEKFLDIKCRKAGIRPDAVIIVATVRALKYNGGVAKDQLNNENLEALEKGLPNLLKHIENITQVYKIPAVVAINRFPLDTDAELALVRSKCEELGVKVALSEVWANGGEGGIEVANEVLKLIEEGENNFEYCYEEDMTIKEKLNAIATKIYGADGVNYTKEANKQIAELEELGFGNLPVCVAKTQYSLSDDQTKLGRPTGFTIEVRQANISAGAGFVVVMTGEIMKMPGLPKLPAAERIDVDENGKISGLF
Method: as §1, §2, §3

[7] = biological target: FtfL from Clostridium ljungdahlii (Clostridium ljungdahlii, UniProt D8GTX8); test: Inhibition of FtfL enzymatic activity; format: biochemical
Method: as §1, §2, §3

[8] = tested on: FtfL from Clostridium sporogenes; test: Inhibition of FtfL enzymatic activity; format: biochemical; conditions: ns = no significance, not inhibited by BBR
Method: as §1, §2, §3

[9] = biological target: FtfL from Lactobacillus plantarum (Lactiplantibacillus plantarum, UniProt Q88W76); test: Inhibition of FtfL enzymatic activity; format: biochemical; conditions: 100 nM enzyme
Method: as §1, §2, §3

[10] = biological target: FtfL from Lactococcus lactis (Lactococcus lactis subsp. lactis, UniProt Q9CH07); test: Inhibition of FtfL enzymatic activity; format: biochemical
Method: as §1, §2, §3

[11] = biological target: FtfL from Clostridioides difficile (Clostridioides difficile, UniProt Q189R2); test: Inhibition of FtfL enzymatic activity; format: biochemical
hsMTHFD1 [12] = biological target: T2, hsMTHFD1 (Homo sapiens, UniProt P11586); test: Inhibition of hsMTHFD1 ligase activity; format: biochemical; conditions: hsMTHFD1, 0.4 mM BBR
T2 construct: His6 tag with thrombin site of pET28a (inferred) (N); made in house; host or cells: E. coli BL21 (DE3)
Method: (§4) Then, the reaction was initiated by adding substrates (2 mM tetrahydrofolate, 10 mM MgCl2, 40 mM sodium formate, and 5 mM ATP).
as §3

[13] = tested on: Peptostreptococcus anaerobius ATCC 27337; test: Growth inhibition of CRC pathogenic bacteria by BBR; conditions: P. anaerobius ATCC 27337; 0.3 mM and 0.6 mM BBR
[14] = tested on: Streptococcus faecalis ATCC 19433; test: as above; conditions: S. faecalis ATCC 19433; 0.3 mM and 0.6 mM BBR
[15] = tested on: Fusobacterium nucleatum ATCC 10953; test: as above; conditions: F. nucleatum ATCC 10953; 0.3 mM and 0.6 mM BBR
[16] = biological target: FtfL from Vibrio cholerae (Vibrio cholerae, UniProt Q9KLX7); test: Inhibition of FtfL enzymatic activity; format: biochemical
PaFtfL Y229A/F383A/W411A = format: binding, P. anaerobius; conditions: BLI, tri-mutant
Method: (§5) A streptavidin matrix-coated sensor chip (SA chip) was firstly equilibrated with buffer A (lysis buffer with 0.05% Tween 20) followed with the immobilization BBP (200 μM) on the SA chip. Next, proteins with increasing concentrations (0.23, 0.91, 3.63, 14.50, and 58.00 μM) were passed on to the chip for the measurement of changes in response unit (nm). The program comprises the stabilization of the baseline with the buffer A for 1 min, 6 min incubation of the BBP with the SA chip for immobilization, stabilizing the baseline again for 3 min, association enabling interaction between proteins and compounds for 4 min, and dissociation for 4 min followed by a regeneration step. […] Raw data were pre-processed, analyzed, and fitted using the 1:1 binding model in the manufacturer’s software (9.0, Pall ForteBio Corp, Menlo Park, CA, USA) to generate kinetic parameters.

PaFtfL Y229A = format: binding, P. anaerobius; conditions: BLI, allosteric site mutant
Method: as §5

PaFtfL F383A = PaFtfL F383A (Peptostreptococcus anaerobius, UniProt A0A379CIH2, F383A); format: binding, P. anaerobius; conditions: BLI
Method: as §5

[17] = tested on: Lactobacillus reuteri DSM 17938; test: Effect of BBR on the growth of probiotics; conditions: L. reuteri DSM 17938
[18] = tested on: Lactobacillus plantarum DSM 13171; test: Effect of BBR on the growth of probiotics; conditions: L. plantarum DSM 13171
PaFtfL [19] = biological target: T1, PaFtfL; design: species or system P. anaerobius; conditions: BLI, wildtype PaFtfL, immobilized BBP, 1:1 binding model
Method: as §5

[20] = tested on: Lactobacillus bulgaricus BD 15; test: Effect of BBR on the growth of probiotics; conditions: L. bulgaricus BD 15
PaFtfL [21] = biological target: T1, PaFtfL; conditions: 40 μM BBR
[22] = biological target: FtfL from Fusobacterium nucleatum (Fusobacterium nucleatum, UniProt Q8RHF4); test: Inhibition of FtfL enzymatic activity; format: biochemical
[23] = biological target: FtfL from Clostridium perfringens (Clostridium perfringens, UniProt Q0TMI3); test: biochemical
hsMTHFD1L [24] = biological target: T3, hsMTHFD1L (Homo sapiens, UniProt Q6UB35); test: Inhibition of hsMTHFD1L ligase activity; format: biochemical; conditions: 0.4 mM BBR
Method: as §4, §3

[25] = tested on: Lactobacillus fermentum CGMCC 1.1880; test: Effect of BBR on the growth of probiotics; conditions: L. fermentum CGMCC 1.1880
[26] = tested on: Lactococcus lactis DSM 20481; test: Growth inhibition of CRC pathogenic bacteria by BBR; conditions: L. lactis DSM 20481; 0.3 mM and 0.6 mM BBR
hsMTHFD1 [27] = biological target: T2, hsMTHFD1; conditions: BLI, 1:1 binding model
Method: as §5

hsMTHFD1L [28] = biological target: T3, hsMTHFD1L; conditions: BLI, 1:1 binding model
Method: as §5

[29] = biological target: PaFtfL (P. anaerobius formate tetrahydrofolate ligase) (Peptostreptococcus anaerobius ATCC 27337); test: crystal structure; sitting drop vapour diffusion at 22 °C, 10 mg/ml protein; three crystal forms: apo, apo crystals soaked with 1 mM ATP, and protein mixed with 1 mM BBR; protomers A/B and C/D form two dimers that assemble into a tetramer

T2 sequence (P11586 whole entry): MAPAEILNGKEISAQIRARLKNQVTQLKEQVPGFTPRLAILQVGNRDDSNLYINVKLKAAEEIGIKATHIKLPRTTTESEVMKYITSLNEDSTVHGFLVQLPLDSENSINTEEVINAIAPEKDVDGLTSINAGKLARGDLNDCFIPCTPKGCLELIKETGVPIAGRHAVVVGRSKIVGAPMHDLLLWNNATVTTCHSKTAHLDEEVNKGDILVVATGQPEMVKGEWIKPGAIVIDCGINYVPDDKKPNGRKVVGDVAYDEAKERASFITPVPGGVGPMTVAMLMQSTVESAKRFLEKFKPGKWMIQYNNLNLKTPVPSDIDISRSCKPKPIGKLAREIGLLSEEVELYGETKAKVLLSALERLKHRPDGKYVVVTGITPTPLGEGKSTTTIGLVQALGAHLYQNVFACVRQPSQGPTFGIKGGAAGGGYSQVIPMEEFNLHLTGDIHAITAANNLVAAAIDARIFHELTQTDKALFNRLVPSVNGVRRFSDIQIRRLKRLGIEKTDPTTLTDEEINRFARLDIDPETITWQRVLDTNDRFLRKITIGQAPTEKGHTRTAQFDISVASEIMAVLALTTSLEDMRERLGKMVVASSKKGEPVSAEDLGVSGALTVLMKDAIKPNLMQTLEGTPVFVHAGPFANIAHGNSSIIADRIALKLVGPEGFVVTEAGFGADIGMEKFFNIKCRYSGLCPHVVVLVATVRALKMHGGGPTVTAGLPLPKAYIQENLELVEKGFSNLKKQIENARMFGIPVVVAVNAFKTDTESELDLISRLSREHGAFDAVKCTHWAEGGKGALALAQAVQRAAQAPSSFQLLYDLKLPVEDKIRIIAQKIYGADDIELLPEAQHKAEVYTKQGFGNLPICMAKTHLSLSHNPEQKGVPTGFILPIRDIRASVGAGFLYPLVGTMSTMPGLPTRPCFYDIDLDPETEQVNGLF
T3 sequence (Q6UB35 349-978 limits assumed): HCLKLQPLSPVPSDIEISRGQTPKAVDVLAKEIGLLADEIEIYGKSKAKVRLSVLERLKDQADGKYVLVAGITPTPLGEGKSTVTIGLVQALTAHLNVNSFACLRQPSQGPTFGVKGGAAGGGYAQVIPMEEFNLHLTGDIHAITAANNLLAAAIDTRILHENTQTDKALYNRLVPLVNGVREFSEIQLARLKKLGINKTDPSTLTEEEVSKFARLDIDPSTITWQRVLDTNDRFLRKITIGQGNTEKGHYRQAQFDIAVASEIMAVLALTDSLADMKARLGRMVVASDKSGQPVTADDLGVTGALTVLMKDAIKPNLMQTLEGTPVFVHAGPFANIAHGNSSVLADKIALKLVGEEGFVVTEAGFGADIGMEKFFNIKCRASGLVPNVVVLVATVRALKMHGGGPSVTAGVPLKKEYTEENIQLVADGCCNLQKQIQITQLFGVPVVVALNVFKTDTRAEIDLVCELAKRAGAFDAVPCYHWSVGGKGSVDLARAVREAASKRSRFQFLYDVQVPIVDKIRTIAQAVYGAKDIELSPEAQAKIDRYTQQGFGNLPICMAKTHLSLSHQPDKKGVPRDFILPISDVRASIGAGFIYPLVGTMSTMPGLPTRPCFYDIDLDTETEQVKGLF
FtfL from Lactobacillus plantarum, sequence (Q88W76 whole entry): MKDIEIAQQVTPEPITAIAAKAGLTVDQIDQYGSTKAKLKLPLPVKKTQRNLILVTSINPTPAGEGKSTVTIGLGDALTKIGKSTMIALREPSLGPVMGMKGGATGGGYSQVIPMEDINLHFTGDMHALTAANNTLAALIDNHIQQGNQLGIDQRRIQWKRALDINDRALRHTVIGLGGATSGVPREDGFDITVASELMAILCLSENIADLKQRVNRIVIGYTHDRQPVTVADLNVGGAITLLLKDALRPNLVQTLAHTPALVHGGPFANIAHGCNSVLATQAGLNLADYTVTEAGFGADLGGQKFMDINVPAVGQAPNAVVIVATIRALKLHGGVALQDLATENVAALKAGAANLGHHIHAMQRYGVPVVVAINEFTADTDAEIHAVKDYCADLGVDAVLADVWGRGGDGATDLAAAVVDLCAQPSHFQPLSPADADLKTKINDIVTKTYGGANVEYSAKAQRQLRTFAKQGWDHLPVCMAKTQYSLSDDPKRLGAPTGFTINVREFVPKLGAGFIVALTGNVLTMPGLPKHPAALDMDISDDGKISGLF
FtfL from Lactococcus lactis, sequence (Q9CH07 whole entry): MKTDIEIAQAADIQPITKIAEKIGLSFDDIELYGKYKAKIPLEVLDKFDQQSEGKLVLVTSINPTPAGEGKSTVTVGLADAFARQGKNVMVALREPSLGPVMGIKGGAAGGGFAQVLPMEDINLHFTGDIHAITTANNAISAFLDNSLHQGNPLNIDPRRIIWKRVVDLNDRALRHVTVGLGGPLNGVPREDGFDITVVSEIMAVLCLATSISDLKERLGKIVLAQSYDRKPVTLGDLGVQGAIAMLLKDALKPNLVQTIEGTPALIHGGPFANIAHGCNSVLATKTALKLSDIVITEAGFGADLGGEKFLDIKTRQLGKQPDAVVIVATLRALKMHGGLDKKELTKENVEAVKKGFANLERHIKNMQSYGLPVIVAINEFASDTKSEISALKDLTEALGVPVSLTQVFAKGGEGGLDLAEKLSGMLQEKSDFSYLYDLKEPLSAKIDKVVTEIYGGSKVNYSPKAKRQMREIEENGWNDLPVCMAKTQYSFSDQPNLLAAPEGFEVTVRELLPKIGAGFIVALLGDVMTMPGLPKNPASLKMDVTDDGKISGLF
FtfL from Clostridium ljungdahlii, sequence (D8GTX8 entry or part of it): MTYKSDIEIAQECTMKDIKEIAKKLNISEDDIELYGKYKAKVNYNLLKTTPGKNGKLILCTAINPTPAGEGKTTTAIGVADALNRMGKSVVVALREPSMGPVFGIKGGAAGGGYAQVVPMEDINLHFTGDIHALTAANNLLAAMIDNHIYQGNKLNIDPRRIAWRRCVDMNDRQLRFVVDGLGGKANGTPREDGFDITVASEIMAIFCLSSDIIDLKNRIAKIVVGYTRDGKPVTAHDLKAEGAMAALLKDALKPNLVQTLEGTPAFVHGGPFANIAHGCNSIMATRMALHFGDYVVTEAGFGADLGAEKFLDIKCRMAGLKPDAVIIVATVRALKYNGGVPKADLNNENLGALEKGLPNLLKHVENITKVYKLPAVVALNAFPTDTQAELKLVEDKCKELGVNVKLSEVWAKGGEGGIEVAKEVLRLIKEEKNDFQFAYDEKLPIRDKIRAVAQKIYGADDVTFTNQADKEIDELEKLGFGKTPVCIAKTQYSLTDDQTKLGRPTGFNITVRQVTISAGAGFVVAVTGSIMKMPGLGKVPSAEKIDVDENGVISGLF

COc1ccc2cc3[n+](cc2c1OC)CCc1cc2c(cc1-3)OCO2 [BBR, Berberine]
effect on bacterial growth [1]: promotes growth | effect on bacterial growth [2]: dose-dependent inhibition; also recorded: inhibits the growth | IC50 [3]: 105 ± 69.8 µM | IC50 [4]: > 200 µM | IC50 [5]: 129 ± 17.1 µM | IC50 (PaFtfL [6]): 62 µM and 62.3 µM | IC50 [7]: 83.8 ± 10 µM | Inhibited by BBR (IC50) [8]: ns | IC50 [9]: > 200 µM | IC50 [10]: 118 ± 18.5 µM | IC50 [11]: 158 ± 68.7 µM | decrease of ligase enzyme activity (hsMTHFD1 [12]): 58% | effect on bacterial growth [13]: dose-dependent inhibition; also recorded: inhibits the growth | effect on bacterial growth [14]: dose-dependent inhibition; also recorded: inhibits the growth | effect on bacterial growth [15]: dose-dependent inhibition; also recorded: inhibits the growth | IC50 [16]: 130 ± 12.3 µM | binding affinity of BBR with PaFtfL Y229A/F383A/W411A (PaFtfL Y229A/F383A/W411A): non-detectable | binding affinity of BBR with PaFtfL Y229A (PaFtfL Y229A): The affinity is too weak to fit | reduction of binding affinity versus wildtype PaFtfL (PaFtfL F383A; F383A): 34 fold | Kd (PaFtfL F383A; active site mutant): 23.1 µM | effect on bacterial growth [17]: little effect | effect on bacterial growth [18]: little effect | Kd (PaFtfL [19]): 0.674 µM | effect on bacterial growth [20]: inhibits growth | apparent Kcat of PaFtfL (PaFtfL [21]; substrate ATP): 16.7 ± 0.83 s⁻¹ | apparent Vmax of PaFtfL (PaFtfL [21]; substrate ATP): 0.010 ± 0.0005 mM/min | apparent Kcat of PaFtfL (PaFtfL [21]; substrate THF): 78.3 ± 6.7 s⁻¹ | apparent Vmax of PaFtfL (PaFtfL [21]; substrate THF): 0.047 ± 0.004 mM/min | IC50 [22]: 106 ± 27 µM | IC50 [23]: 105 ± 3.15 µM | decrease of ligase enzyme activity (hsMTHFD1L [24]): 36% | effect on bacterial growth [25]: little effect | effect on bacterial growth [26]: dose-dependent inhibition; also recorded: inhibits the growth | Kd (hsMTHFD1 [27]): 2.3 µM | Kd (hsMTHFD1L [28]): 0.158 µM

PaFtfL (P. anaerobius formate tetrahydrofolate ligase) (enzyme)
stoichiometry N [29]: 4
